For the test, the system named is hiPSC derived odontoblast cells (iOB). In words: qPCR of odontoblast markers (Example 2). Type of test: cell-based, human. The following applies: iOB bFGF (100 ng/mL, 14 days) compared to conventional odontoblast differentiation method (OB). As to the method:
This project applies the DPSC derived to odontoblast protocol previously described by the lab (30), modified for hiPSC and to reflect the full signaling pathway activities as detected by the sci-RNA-seq analysis (FIG. 11A; FIGS. 15B and 15C). […] Odontogenic medium was supplemented with 50 ng/mL BMP4 (Stemcell Technologies 78211) for 7 days followed by 25 ng/mL BMP4 (Stemcell Technologies 78211) and 400 nM SAG (Stemcell Technologies 73412) for 7 days (iOB); 100 ng/mL C6 (1,2) for 14 days (iOB C6); 100 ng/mL C6 for 7 days followed by 100 ng/mL mb7 (31,32) for 7 days (iOB C6 to mb7); or 100 ng/mL recombinant basic FGF (Gibco 13256-029) for 14 days (iOB bFGF). […]
To analyze gene expression, cells were dissociated and lysed with Trizol (Life Technology) with cell pellets stored at −80° C. RNA purification is performed via TURBO DNA-Free™ Kit (Invitrogen) or Aurum™ Total RNA Mini Kit (Bio-Rad), purity and concentration quantification via Nanodrop ND-1000 (Thermo Fisher Scientific). cDNA synthesis via iScript™ cDNA Synthesis Kit (Bio-Rad) or Applied Biosystems™ High-Capacity cDNA Reverse Transcription Kit (Thermo Fisher Scientific), and qPCR performed using oligonucleotide primers for neural crest and odontoblast markers (Table 3), SYBR Green reporter (Applied Biosystems) and 7300 Real-Time PCR System (Applied Biosystems). […]
Background: Real-time PCR tracks product formation cycle by cycle.

With “bFGF: recombinant basic FGF (Gibco 13256-029)”, the “DSPP and DMP1 expression” value was “increased DSPP and DMP1 expression”.

The values are drawn from US20260117184A1, “SYSTEM AND METHOD TO DIRECT THE DIFFERENTIATION OF PLURIPOTENT STEM CELL-DERIVED ODONTOBLASTS” (UNIVERSITY OF WASHINGTON, priority 2022, published 2026).
